Our source for the DC50 and IC50 values is US20260295053A1, “COMPOUNDS FOR DEGRADATION AND INHIBITION OF KRAS (G12D) PROTEIN” (Shenzhen Ionova Life Science Co., Ltd., priority 2023, published 2026).

One test has as its target T1, KRAS (G12D) (Homo sapiens, UniProt P01116, G12D).
T1 construct: in-cell western with KRAS G12D antibody after 24 h
Nature of the test: KRAS (G12D) cellular degradation assay in AsPC-1 cells. The format is cell-based. Particulars: 24 hours, antibody fluorescence (Odyssey CLX), DC50 half-maximal degradation concentration. An outline of the steps:
(§1)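 AsPC-1 cells: for degradation, grown to ~90% confluency, treated 24 h with 1:3 compound series ([…] to 1.5 nM), then fixed and immunostained for KRAS G12D and β-actin, read by infrared fluorescence, DC50 fitted. Proliferation: 3,500 cells/well, 6-day treatment, CellTiter Glo luminescence, IC50 fitted.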

A further test has as its system AsPC-1 cells. Nature of the test: AsPC-1 cell proliferation assay (CellTiter Glo). Type of test: cell-based. To be noted: Homo sapiens, ASPC1, 144 h, 6 days. An outline of the steps:
as §1
(In general: Cellular ATP, detected with luciferase, serves as a proxy for viable cell number.)

As a reminder, the DC50 is the concentration giving 50% degradation. Read a low DC50 as a more potent degrader. Broadly, the IC50 is the midpoint of a concentration-inhibition curve. Read a low IC50 as inhibition by little substance.

T1 sequence (P01116 1-188 isoform P01116-2 G12D): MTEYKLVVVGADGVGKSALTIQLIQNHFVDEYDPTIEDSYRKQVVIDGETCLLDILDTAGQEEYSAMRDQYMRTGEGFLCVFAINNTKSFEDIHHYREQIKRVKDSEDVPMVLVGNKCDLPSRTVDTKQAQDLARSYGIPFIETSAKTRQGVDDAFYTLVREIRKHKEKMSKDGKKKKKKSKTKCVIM

At KRAS (G12D), `CO[C@@H](C)COc1nc(N2CCNCC[C@H]2C)c2cc(C3CC3)c(-c3c(C)c(F)cc4[nH]ncc34)c(OCc3ccc(-c4cn([C@H](C(=O)N5C[C@H](O)C[C@H]5C(=O)N[C@H](c5ccc(-c6scnc6C)cc5)[C@H](C)O)C(C)C)nn4)cc3)c2n1` [Example 190, (2S,4R)-1-((2S)-2-(4-(4-(((6-cyclopropyl-7-(6-fluoro-5-methyl-1H-indazol-4-yl)-2-((S)-2-methoxypropoxy)-4-((R)-7-methyl-1,4-diazepan-1-yl)quinazolin-8-yl)oxy)methyl)phenyl)-1H-1,2,3-triazol-1-yl)-3-methylbutanoyl)-4-hydroxy-N-((1R,2S)-2-hydroxy-1-(4-(4-methylthiazol-5-yl)phenyl)propyl)pyrrolidine-2-carboxamide] showed a DC50 of less than 10 nM. The compound also had an IC50 with AsPC-1 cells of less than 10 nM.
For the compound `CCn1nccc1-c1ccc([C@H](CO)NC(=O)[C@@H]2C[C@@H](O)CN2C(=O)[C@H](C(C)C)n2cc(-c3ccc(COc4c(-c5c(C)c(F)cc6[nH]ncc56)c(C5CC5)cc5c(N(C)[C@@H]6CCNC6)nc(OC[C@H](C)OC)nc45)cc3)nn2)c2c1CC2` [Example 192, (2S,4R)-1-((2S)-2-(4-(4-(((6-cyclopropyl-7-(6-fluoro-5-methyl-1H-indazol-4-yl)-2-((S)-2-methoxypropoxy)-4-(methyl((R)-pyrrolidin-3-yl)amino)quinazolin-8-yl)oxy)methyl)phenyl)-1H-1,2,3-triazol-1-yl)-3-methylbutanoyl)-N—((R)-1-(5-(1-ethyl-1H-pyrazol-5-yl)bicyclo[4.2.0]octa-1(6),2,4-trien-2-yl)-2-hydroxyethyl)-4-hydroxypyrrolidine-2-carboxamide], the DC50 on KRAS (G12D) was less than 10 nM. Moreover, the IC50 in the test on AsPC-1 cells was less than 10 nM.
Turning to `CCn1nccc1-c1ccc([C@@H](NC(=O)[C@@H]2C[C@@H](O)CN2C(=O)[C@H](C(C)C)n2cc(-c3ccc(COc4c(-c5c(C)c(F)cc6[nH]ncc56)c(C5CC5)cc5c(N6C[C@@H]7C[C@H]6CN7)nc(O[C@H]6C[C@H](OC)C6)nc45)cc3)nn2)[C@H](C)O)cn1` [Example 193, (2S,4R)-1-((2S)-2-(4-(4-(((4-((1S,4S)-2,5-diazabicyclo[2.2.1]heptan-2-yl)-6-cyclopropyl-7-(6-fluoro-5-methyl-1H-indazol-4-yl)-2-((1r,3S)-3-methoxycyclobutoxy)quinazolin-8-yl)oxy)methyl)phenyl)-1H-1,2,3-triazol-1-yl)-3-methylbutanoyl)-N-((1R,2S)-1-(6-(1-ethyl-1H-pyrazol-5-yl)pyridin-3-yl)-2-hydroxypropyl)-4-hydroxypyrrolidine-2-carboxamide], the DC50 on KRAS (G12D) was 10 to 100 nM. Besides, the IC50 in the test on AsPC-1 cells was less than 10 nM.
For `CO[C@H]1C[C@H](Oc2nc(N(C)[C@H]3CCNC3)c3cc(C4CC4)c(-c4c(C)c(F)cc5[nH]ncc45)c(OCc4ccc(-c5cn([C@H](C(=O)N6C[C@H](O)C[C@H]6C(=O)N[C@H](c6ccc(-c7scnc7C)c7c6CC7)[C@H](C)O)C(C)C)nn5)cc4)c3n2)C1` [Example 194, (2S,4R)-1-((2S)-2-(4-(4-(((6-cyclopropyl-7-(6-fluoro-5-methyl-1H-indazol-4-yl)-2-((1r,3S)-3-methoxycyclobutoxy)-4-(methyl((S)-pyrrolidin-3-yl)amino)quinazolin-8-yl)oxy)methyl)phenyl)-1H-1,2,3-triazol-1-yl)-3-methylbutanoyl)-4-hydroxy-N-((1R,2S)-2-hydroxy-1-(5-(4-methylthiazol-5-yl)bicyclo[4.2.0]octa-1(6),2,4-trien-2-yl)propyl)pyrrolidine-2-carboxamide], in that order: less than 10 nM and less than 10 nM.
`CCn1nccc1-c1ccc([C@@H](NC(=O)[C@@H]2C[C@@H](O)CN2C(=O)[C@H](C(C)C)n2cc(-c3ccc(COc4c(-c5c(C)c(F)cc6[nH]ncc56)c(C5CC5)cc5c(N6C[C@@H]7C[C@H]6CN7)nc(O[C@H]6C[C@H](OC)C6)nc45)cc3)nn2)[C@H](C)O)cc1F` [Example 195, (2S,4R)-1-((2S)-2-(4-(4-(((4-((1S,4S)-2,5-diazabicyclo[2.2.1]heptan-2-yl)-6-cyclopropyl-7-(6-fluoro-5-methyl-1H-indazol-4-yl)-2-((1r,3S)-3-methoxycyclobutoxy)quinazolin-8-yl)oxy)methyl)phenyl)-1H-1,2,3-triazol-1-yl)-3-methylbutanoyl)-N-((1R,2S)-1-(4-(1-ethyl-1H-pyrazol-5-yl)-3-fluorophenyl)-2-hydroxypropyl)-4-hydroxypyrrolidine-2-carboxamide] showed a DC50 at KRAS (G12D) of less than 10 nM. Besides, the IC50 with AsPC-1 cells was less than 10 nM.
With `CCn1nccc1-c1cc(F)c([C@@H](NC(=O)[C@@H]2C[C@@H](O)CN2C(=O)[C@H](C(C)C)n2cc(-c3ccc(COc4c(-c5c(C)c(F)cc6[nH]ncc56)c(C5CC5)cc5c(N6C[C@@H]7C[C@H]6CN7)nc(O[C@H]6C[C@H](OC)C6)nc45)cc3)nn2)[C@H](C)O)c(F)c1` [Example 196, (2S,4R)-1-((2S)-2-(4-(4-(((4-((1S,4S)-2,5-diazabicyclo[2.2.1]heptan-2-yl)-6-cyclopropyl-7-(6-fluoro-5-methyl-1H-indazol-4-yl)-2-((1r,3S)-3-methoxycyclobutoxy)quinazolin-8-yl)oxy)methyl)phenyl)-1H-1,2,3-triazol-1-yl)-3-methylbutanoyl)-N-((1R,2S)-1-(4-(1-ethyl-1H-pyrazol-5-yl)-2,6-difluorophenyl)-2-hydroxypropyl)-4-hydroxypyrrolidine-2-carboxamide], on KRAS (G12D), the DC50 lay in the range of 10 to 100 nM. The same compound returned an IC50 in the test on AsPC-1 cells of 10 to 100 nM.
Regarding `CCn1nccc1-c1ccc([C@H](CO)NC(=O)[C@@H]2C[C@@H](O)CN2C(=O)[C@H](C(C)C)n2cc(-c3ccc(COc4c(-c5c(C)c(F)cc6[nH]ncc56)c(C5CC5)cc5c(N(C)[C@H]6[C@@H]7CN[C@H]6C7)nc(OC[C@H](C)OC)nc45)cc3)nn2)cc1` [Example 197, (2S,4R)-1-((2S)-2-(4-(4-(((4-(((1S,4S,5S)-2-azabicyclo[2.1.1]hexan-5-yl)(methyl)amino)-6-cyclopropyl-7-(6-fluoro-5-methyl-1H-indazol-4-yl)-2-((S)-2-methoxypropoxy)quinazolin-8-yl)oxy)methyl)phenyl)-1H-1,2,3-triazol-1-yl)-3-methylbutanoyl)-N—((R)-1-(4-(1-ethyl-1H-pyrazol-5-yl)phenyl)-2-hydroxyethyl)-4-hydroxypyrrolidine-2-carboxamide], the 50% degradation concentration (DC50) on KRAS (G12D) is less than 10 nM. The compound further displayed an IC50 in the test on AsPC-1 cells of less than 10 nM.
Regarding `CCn1nccc1-c1ccc([C@@H](NC(=O)[C@@H]2C[C@@H](O)CN2C(=O)[C@H](C(C)C)n2cc(-c3ccc(COc4c(-c5c(C)c(F)cc6[nH]ncc56)c(C5CC5)cc5c(N6C[C@@H]7C[C@H]6CN7)nc(O[C@H]6C[C@H](OC)C6)nc45)cc3)nn2)[C@H](C)O)c(F)c1` [Example 198, (2S,4R)-1-((2S)-2-(4-(4-(((4-((1S,4S)-2,5-diazabicyclo[2.2.1]heptan-2-yl)-6-cyclopropyl-7-(6-fluoro-5-methyl-1H-indazol-4-yl)-2-((1r,3S)-3-methoxycyclobutoxy)quinazolin-8-yl)oxy)methyl)phenyl)-1H-1,2,3-triazol-1-yl)-3-methylbutanoyl)-N-((1R,2S)-1-(4-(1-ethyl-1H-pyrazol-5-yl)-2-fluorophenyl)-2-hydroxypropyl)-4-hydroxypyrrolidine-2-carboxamide], the DC50 on KRAS (G12D) was less than 10 nM. Further, in the test on AsPC-1 cells, the concentration for half-maximal inhibition (IC50) was less than 10 nM.
On to `CO[C@H]1C[C@H](Oc2nc(N3CCCNCC3)c3cc(C4CC4)c(-c4c(C)c(F)cc5[nH]ncc45)c(OCc4ccc(-c5cn([C@H](C(=O)N6C[C@H](O)C[C@H]6C(=O)N[C@@H](CO)c6ccc(-c7scnc7C)cc6)C(C)C)nn5)cc4)c3n2)C1` [Example 199, (2S,4R)-1-((2S)-2-(4-(4-(((6-cyclopropyl-4-(1,4-diazepan-1-yl)-7-(6-fluoro-5-methyl-1H-indazol-4-yl)-2-((1r,3r)-3-methoxycyclobutoxy)quinazolin-8-yl)oxy)methyl)phenyl)-1H-1,2,3-triazol-1-yl)-3-methylbutanoyl)-4-hydroxy-N—((R)-2-hydroxy-1-(4-(4-methylthiazol-5-yl)phenyl)ethyl)pyrrolidine-2-carboxamide], for which the 50% degradation concentration (DC50) at KRAS (G12D) was less than 10 nM. Further, in the test with AsPC-1 cells, the 50% inhibitory concentration (IC50) is less than 10 nM.
At KRAS (G12D), `CCn1nccc1-c1ccc([C@@H](NC(=O)[C@@H]2C[C@@H](O)CN2C(=O)[C@H](C(C)C)n2cc(-c3ccc(COc4c(-c5c(C)c(F)cc6[nH]ncc56)c(C5CC5)cc5c(N6CCNCC[C@H]6C)nc(OC[C@H](C)OC)nc45)cc3)nn2)[C@H](C)O)cc1` [Example 201, (2S,4R)-1-((2S)-2-(4-(4-(((6-cyclopropyl-7-(6-fluoro-5-methyl-1H-indazol-4-yl)-2-((S)-2-methoxypropoxy)-4-((R)-7-methyl-1,4-diazepan-1-yl)quinazolin-8-yl)oxy)methyl)phenyl)-1H-1,2,3-triazol-1-yl)-3-methylbutanoyl)-N-((1R,2S)-1-(4-(1-ethyl-1H-pyrazol-5-yl)phenyl)-2-hydroxypropyl)-4-hydroxypyrrolidine-2-carboxamide] yielded a DC50 of less than 10 nM. In the test on AsPC-1 cells, the concentration for half-maximal inhibition (IC50) is less than 10 nM.
Compound `CO[C@H]1C[C@H](Oc2nc(N(C)[C@@H]3CCNC3)c3cc(C4CC4)c(-c4c(C)c(F)cc5[nH]ncc45)c(OCc4ccc(-c5cn([C@H](C(=O)N6C[C@H](O)C[C@H]6C(=O)N[C@H](c6ccc(-c7scnc7C)cc6)[C@H](C)O)C(C)C)nn5)cc4)c3n2)C1` [Example 202, (2S,4R)-1-((2S)-2-(4-(4-(((6-cyclopropyl-7-(6-fluoro-5-methyl-1H-indazol-4-yl)-2-((1r,3R)-3-methoxycyclobutoxy)-4-(methyl((R)-pyrrolidin-3-yl)amino)quinazolin-8-yl)oxy)methyl)phenyl)-1H-1,2,3-triazol-1-yl)-3-methylbutanoyl)-4-hydroxy-N-((1R,2S)-2-hydroxy-1-(4-(4-methylthiazol-5-yl)phenyl)propyl)pyrrolidine-2-carboxamide] showed a DC50 at KRAS (G12D) of less than 10 nM. Also, the IC50 in the test with AsPC-1 cells is less than 10 nM.
